The record followed here is the Kinase Knowledgebase extract (Sharma et al. 2016).

The structures appear in SMILES notation. Where “and” joins values, the source holds several entries; their conditions need not be identical. Identical values can stand only once.

This test concerns the target CDK2 (UniProt P24941). Briefly: Enzyme Assay.

The term IC50 denotes the midpoint of a concentration-inhibition curve. A high value points to weaker potency. In turn, `CS(=O)(=O)N1CCCC(c2cc(NCc3cccnc3)n3ncc(Br)c3n2)C1` (centres undefined) had an IC50 of 0.0001 to 0.1 µM.
As for `[O-][n+]1cccc(CNc2cc(-c3ccccc3Cl)nc3c(Br)cnn23)c1`, the figure is 0.0001 to 0.1 µM.
The same measure for `[O-][n+]1cccc(CNc2cc(-c3ccco3)nc3c(Br)cnn23)c1`: 0.0001 to 0.1 µM.
As for `[O-][n+]1cccc(CNc2cc(-c3ccc(Cl)cc3)nc3c(Br)cnn23)c1`, the IC50 lay within 0.0001 to 0.1 µM.
Molecule `O=c1ccc(CNc2cc(-c3ccccc3F)nc3c(Br)cnn23)c[nH]1` came in with an IC50 of 0.0001 to 0.1 µM.
As for `CC(=O)N1CCCC(c2cc(NCc3cccnc3)n3ncc(Br)c3n2)C1` (centres undefined), the IC50 was in the range of 0.0001 to 0.1 µM.
`CC(C)[C@H](CO)Nc1cc(NCc2ccc[n+]([O-])c2)n2ncc(Br)c2n1` displayed an IC50 of 0.0001 to 0.1 µM.
As for `Brc1cnn2c(NCc3cccnc3)cc(C3CCOCC3)nc12`, the figure is 0.0001 to 0.1 µM; as for `[O-][n+]1cccc(CNc2cc(C3CCNCC3)nc3c(Br)cnn23)c1`, 0.0001 to 0.1 µM.
The same measure for `CNC(=O)c1ccc(CNc2cc(-c3ccccc3F)nc3c(Br)cnn23)cc1`: 0.0001 to 0.1 µM; for `Cn1cnc2cc(CNc3cc(-c4ccccc4)nc4c(Br)cnn34)ccc21`: 0.0001 to 0.1 µM; for `COc1ccc(CNc2cc(-c3ccccc3F)nc3c(Br)cnn23)c[n+]1[O-]`: 0.0001 to 0.1 µM.
The same measure for `CCc1cnn2c(NCc3ccc(OC)[n+]([O-])c3)cc(-c3ccccc3F)nc12`: 0.0001 to 0.1 µM.
With `Brc1cnn2c(NCc3ccc(-c4csnn4)cc3)cc(C3CCNCC3)nc12`, the IC50 fell in the range of 0.0001 to 0.1 µM.
As for `CC1(C)[C@@H]2[C@@H](CO)N(c3cc(NCc4cccnc4)n4ncc(Br)c4n3)C[C@@H]21`, the figure is 0.0001 to 0.1 µM.
`Brc1cnn2c(NCc3ccc4[nH]cnc4c3)cc(C3CCCCC3)nc12` yielded an IC50 of 0.0001 to 0.1 µM.
`[O-][n+]1cccc(CNc2cc(C3CCCCC3)nc3c(Br)cnn23)c1` had an IC50 of 0.0001 to 0.1 µM.
As for `OCC1(Nc2cc(NCc3cccnc3)n3ncc(Br)c3n2)CCCC1`, the IC50 is 0.0001 to 0.1 µM.
As for `COc1c(Cl)cc(CNc2cc(-c3ccccc3)nc3c(Br)cnn23)c[n+]1[O-]`, the figure is 0.0001 to 0.1 µM; as for `NC(=O)N1CCCC(c2cc(NCc3cccnc3)n3ncc(Br)c3n2)C1` (centres undefined), 0.0001 to 0.1 µM; as for `[O-][n+]1cccc(CNc2cc(N3CCC[C@H]3CO)nc3c(Br)cnn23)c1`, 0.0001 to 0.1 µM.
The same measure for `[O-][n+]1cc(CNc2cc(-c3ccccc3)nc3c(Br)cnn23)ccc1OCC(F)(F)F`: 0.0001 to 0.1 µM.
Turning to `N[C@H]1CC[C@H](Nc2cc(NCc3cccnc3)n3ncc(Br)c3n2)CC1`, the IC50 lay within 0.0001 to 0.1 µM.
As for `[O-][n+]1cccc(CNc2cc(C3CCOCC3)nc3c(Br)cnn23)c1`, the figure is 0.0001 to 0.1 µM; as for `CC(C)(O)[C@@H]1CCCN1c1cc(NCc2cccnc2)n2ncc(Br)c2n1`, 0.0001 to 0.1 µM; as for `Cc1ccccc1-c1cc(NCc2ccc[n+]([O-])c2)n2ncc(Br)c2n1`, 0.0001 to 0.1 µM.
Regarding `Brc1cnn2c(NCc3cccnc3)cc(-c3ccco3)nc12`, the IC50 fell in the range of 0.0001 to 0.1 µM.
The same measure for `CC(C)Oc1ccc(CNc2cc(-c3ccccc3F)nc3c(Br)cnn23)c[n+]1[O-]`: 0.0001 to 0.1 µM; for `CCc1cnn2c(NCc3cccnc3)cc(-c3ccccc3)nc12`: 0.0001 to 0.1 µM; for `NC(=O)N1CCC(c2cc(NCc3cccnc3)n3ncc(Br)c3n2)CC1`: 0.0001 to 0.1 µM.
For the molecule `OCC[C@@H]1CCCN1c1cc(NCc2cccnc2)n2ncc(Br)c2n1`, the IC50 was in the range of 0.0001 to 0.1 µM.
`Oc1cc(CNc2cc(C3CCCCC3)nc3c(Br)cnn23)ccn1`: the IC50 is 0.0001 to 0.1 µM.
Turning to `O=c1ccc(CNc2cc(-c3ccccc3)nc3c(Br)cnn23)c[nH]1`, the IC50 lay in the range of 0.0001 to 0.1 µM.
The same measure for `Brc1cnn2c(NCc3cccnc3)cc(C3CCCNC3)nc12` (centres undefined): 0.0001 to 0.1 µM.
For the molecule `CC(=O)N1CCC(c2cc(NCc3cccnc3)n3ncc(Br)c3n2)CC1`, the IC50 fell in the range of 0.0001 to 0.1 µM.
The same measure for `Brc1cnn2c(NCc3cccnc3)cc(C3CCCCC3)nc12`: 0.0001 to 0.1 µM; for `O=C(C1CC1)N1CCC(c2cc(NCc3cccnc3)n3ncc(Br)c3n2)CC1`: 0.0001 to 0.1 µM.
Consider `[O-][n+]1cccc(CNc2cc(-c3ccccc3F)nc3c(Br)cnn23)c1`, for which the IC50 lay in the range of 0.0001 to 0.1 µM.
As for `CCOc1ccc(CNc2cc(-c3ccccc3)nc3c(Br)cnn23)c[n+]1[O-]`, the figure is 0.0001 to 0.1 µM.
As for `CS(=O)(=O)N1CCC(c2cc(NCc3cccnc3)n3ncc(Br)c3n2)CC1`, the figure is 0.0001 to 0.1 µM; as for `Brc1cnn2c(NCc3ccc4[nH]cnc4c3)cc(C3CCNCC3)nc12`, 0.0001 to 0.1 µM.
As for `[O-][n+]1cccc(CNc2cc(-c3ccccc3)nc3c(Br)cnn23)c1`, the figure is 0.0001 to 0.1 µM; as for `Fc1ccccc1-c1cc(NCc2ccncc2)n2ncc(Br)c2n1`, 0.032 µM and 0.024 µM; as for `Nc1ncc(CNc2cc(C3CCCNC3)nc3c(Br)cnn23)cn1` (centres undefined), 0.0001 to 0.1 µM.
`CN1CCN(c2cc(NCc3cccnc3)n3ncc(Br)c3n2)CC1` yielded an IC50 of 0.14 µM.
As for `Brc1cnn2c(NCc3cccnc3)cc(C3CCNCC3)nc12`, the figure is 0.0001 to 0.1 µM; as for `CC(C)(CO)Nc1cc(NCc2cccnc2)n2ncc(Br)c2n1`, 0.0001 to 0.1 µM.
As for `O=c1ccc(CNc2cc(C3CCCCC3)nc3c(Br)cnn23)c[nH]1`, the figure is 0.0001 to 0.1 µM; as for `OC[C@H]1CCCC[C@H]1c1cc(NCc2cccnc2)n2ncc(Br)c2n1`, 0.0001 to 0.1 µM; as for `CC(C)(O)[C@@H]1CCCN1c1cc(NCc2ccc[n+]([O-])c2)n2ncc(Br)c2n1`, 0.0001 to 0.1 µM.
The same measure for `CCc1cnn2c(NCc3ccnc(O)c3)cc(-c3ccccc3)nc12`: 0.0001 to 0.1 µM; for `[O-][n+]1cccc(CNc2cc(-c3cccs3)nc3c(Br)cnn23)c1`: 0.0001 to 0.1 µM; for `O=c1cc(CNc2cc(-c3ccccc3)nc3c(Br)cnn23)cc[nH]1`: 0.0001 to 0.1 µM.
As for `Brc1cnn2c(NCc3cccnc3)cc(-c3ccccc3)nc12`, the IC50 fell in the range of 0.0001 to 0.1 µM.
As for `CC(C)[C@@H](CO)Nc1cc(NCc2ccc[n+]([O-])c2)n2ncc(Br)c2n1`, the figure is 0.0001 to 0.1 µM; as for `OC[C@H]1CCCC[C@H]1Nc1cc(NCc2cccnc2)n2ncc(Br)c2n1`, 0.0001 to 0.1 µM.
The same measure for `CC(C)c1cc(NCc2ccc[n+]([O-])c2)n2ncc(Br)c2n1`: 0.0001 to 0.1 µM; for `CCc1cnn2c(NCc3ccc[n+]([O-])c3)cc(-c3ccccc3)nc12`: 0.0001 to 0.1 µM.
The same measure for `Fc1ccccc1-c1cc(NCc2ccc3[nH]cnc3c2)n2ncc(Br)c2n1`: 0.0001 to 0.1 µM; for `OCC1CCCCN1c1cc(NCc2cccnc2)n2ncc(Br)c2n1` (centres undefined): 0.0001 to 0.1 µM; for `CCc1cnn2c(NCc3ccc[n+]([O-])c3)cc(-c3ccccc3F)nc12`: 0.0001 to 0.1 µM.
For the molecule `OCCC1CCCCN1c1cc(NCc2cccnc2)n2ncc(Br)c2n1` (centres undefined), the IC50 was 0.0001 to 0.1 µM.
The same measure for `CCc1cnn2c(NCc3ccc[n+]([O-])c3)cc(C3CCCCC3)nc12`: 0.0001 to 0.1 µM; for `CC(C)(O)[C@H]1CCCC[C@H]1c1cc(NCc2cccnc2)n2ncc(Br)c2n1`: 0.0001 to 0.1 µM.
